What was measured:
[1] = test system: gut microbiota; assay: LPS production in gut microbiota (ELISA); format: cell-based; settings: human feces culture; lactic acid bacteria 1×10^6 CFU/mL; anaerobic 24 hr
Procedure: Fresh human feces were suspended in anaerobic medium (GAM, Nissui Pharmaceutical Co., Ltd., Japan) and allowed to stand for 10 min. The supernatant was diluted with 10,000-fold anaerobic medium, 0.05 mL of the dilution was transplanted into 5 mL of freshly made anaerobic medium, and lactic acid bacteria (1×10^6 CFU/mL) were implanted and incubated anaerobically for 24 hr.

[2] = Antioxidant activity (DPPH, in vitro); format: biochemical; settings: DPPH 0.2 mM; lactic acid bacteria suspension 1×10^8 CFU/ml; 37° C. 20 min
Procedure: DPPH (2,2-Diphenyl-1-picrylhydrazyl) was dissolved in ethanol to a concentration of 0.2 mM to prepare DPPH solution. Lactic acid bacteria suspension (1×10^8 CFU/ml) or vitamin C solution (1 g/ml) was added to 0.1 ml of the above DPPH solution and incubated at 37° C. for 20 min. The culture was centrifuged at 3000 rpm for 5 min to obtain a supernatant. The absorbance of the supernatant was then measured at 517 nm and the antioxidant activity of the lactic acid bacteria was calculated.

[3] = test system: Neuropeptide Y (NPY); assay: Neuropeptide Y (NPY) expression in PC12 phaeochromocytoma cells; format: cell-based; settings: LPS 200 ng/ml; lactic acid bacteria 1×10^4 CFU/ml; 24 hr
Procedure: (§1) PC12 cells obtained from the Korean Cell Line Bank were cultured in DMEM medium supplemented with 10% FBS and 1% antibiotics, and dispensed at 1×10^6 cells per well in a 12-well plate. Then, LPS (200 ng/ml) was added to each well along with lactic acid bacteria (1×10^4 CFU/ml) and incubated for 24 hr. The cells and supernatants were collected, sonicated and centrifuged, and the amount of NPY in the supernatant was measured by ELISA kit.

[4] = test system: BDNF; assay: BDNF expression in SH-SY5Y cells; format: cell-based; settings: LPS 200 ng/ml; lactic acid bacteria 1×10^4 CFU/ml; 24 h
Procedure: as §1, with “SH-SY5Y” for “PC12”, “2×10^6” for “1×10^6”, “h.” for “hr.”, “BDNF” for “NPY”

[5] = test system: TNF-α; assay: TNF-α expression in LPS-treated macrophages (ELISA); format: cell-based, C57BL/6 mice; settings: macrophages treated with lactic acid bacteria and LPS for 24 hours
Procedure: (§2) C57BL/6 mice (male, 6 weeks old, 20-23 g) were subjected to an intraperitoneal injection of 2 ml of sterile 4% thioglycolate solution, and after 96 hours, the mice were anesthetized and injected with 8 ml of RPMI 1640 medium through the peritoneal cavity. Then, after 5-10 minutes, the RPMI medium (macrophages) in the mouse peritoneal cavity was extracted, centrifuged at 1000 g for 10 minutes, and washed again with RPMI 1640 medium twice. Macrophages were seeded in 24-well plates at a count of 0.5×10^6 in each well, and treated with lactic acid bacteria and LPS, an inflammatory response-inducing substance, for 24 hours. TNF-α and IL-10 cytokine expression amount in the culture supernatant was then measured by ELISA Kit.

[6] = test system: Clostridium difficile; assay: Clostridium difficile proliferation in gut microbiota (PCR); format: cell-based; settings: human feces culture; lactic acid bacteria 1×10^6 CFU/mL; anaerobic 24 hr
Procedure: Fresh human feces were suspended in anaerobic medium (GAM, Nissui Pharmaceutical Co., Ltd., Japan) and allowed to stand for 10 min. The supernatant was diluted with 10,000-fold anaerobic medium, 0.05 mL of the dilution was transplanted into 5 mL of freshly made anaerobic medium, and lactic acid bacteria (1×10^6 CFU/mL) were implanted and incubated anaerobically for 24 hr. This culture medium was divided into two, one was centrifuged (5000 rpm, 20 minutes), the precipitated DNA was isolated using the QIAamp DNA stool mini kit (Qiagen, Germany), and Clostridium difficile (primer: forward, 5′-[…]-3′ (SEQ ID NO: 4); reverse, 5′-[…]-3′ (SEQ ID NO: 5) was quantified by PCR. The reaction product was first treated at 95° C. for 30 seconds, followed by 42 cycles of 5 seconds at 95° C. and 30 seconds at 72° C. for analysis. In addition, one culture medium was sonicated, centrifuged, and filter-sterilized, and the amount of LPS in the supernatant was measured using an ELISA kit.

[7] = test system: IL-10; assay: IL-10 expression in LPS-treated macrophages (ELISA); format: cell-based, C57BL/6 mice; settings: macrophages treated with lactic acid bacteria and LPS for 24 hours
Procedure: as §2

Substance	Gut microbiota Inhibition of LPS production [1]	Antioxidant activity [2]	PC12 cell Induction of NPY expression [3]	SHSY5Y cell Induction of BDNF expression [4]	Macrophage Inhibition of TNF-α expression [5]	Gut microbiota Inhibition of difficile bacteria proliferation [6]	Macrophage Induction of IL-10 expression [7]
Bifidobacterium pseudocatenulatum NK229	− (not or less than 20% (−; <20%))	+ (weakly (+; >20-60%))	− (not or less than 20% (−; <20%))	+ (weakly (+; >20-60%))	+ (weakly (+; >20-60%))	− (not or less than 20% (−; <20%))	
Lactobacillus gasseri NK188		+ (weakly (+; >20-60%))	− (not or less than 20% (−; <20%))	− (not or less than 20% (−; <20%))	+ (weakly (+; >20-60%))	+ (weakly (+; >20-60%))	+ (weakly (+; >20-60%))
Lactobacillus paracasei NK190		+ (weakly (+; >20-60%))	+ (weakly (+; >20-60%))	− (not or less than 20% (−; <20%))	− (not or less than 20% (−; <20%))	+ (weakly (+; >20-60%))	− (not or less than 20% (−; <20%))
Lactobacillus paracasei NK191		+ (weakly (+; >20-60%))	+ (weakly (+; >20-60%))	+ (weakly (+; >20-60%))	− (not or less than 20% (−; <20%))	− (not or less than 20% (−; <20%))	+ (weakly (+; >20-60%))
Lactobacillus paracasei NK192		++ (strongly (++; >60-90%))	− (not or less than 20% (−; <20%))	− (not or less than 20% (−; <20%))	− (not or less than 20% (−; <20%))	− (not or less than 20% (−; <20%))	− (not or less than 20% (−; <20%))
Lactobacillus sakei NK199	− (not or less than 20% (−; <20%))	+ (weakly (+; >20-60%))	− (not or less than 20% (−; <20%))	− (not or less than 20% (−; <20%))	+ (weakly (+; >20-60%))	− (not or less than 20% (−; <20%))	
Lactococcus graminis NK206		+ (weakly (+; >20-60%))	+ (weakly (+; >20-60%))		− (not or less than 20% (−; <20%))		− (not or less than 20% (−; <20%))
Lactococcus graminis NK207	+ (weakly (+; >20-60%))	− (not or less than 20% (−; <20%))	− (not or less than 20% (−; <20%))	− (not or less than 20% (−; <20%))		+ (weakly (+; >20-60%))	
